Reference: patent US8343536B2, “Biofilm-inhibiting medical products” (Cook Biotech Incorporated, priority 2007, dated 2013)

Legend:
mice = assay: Mouse subcutaneous implant method, in vivo angiogenesis and tolerability of BisEDT coated SIS (Example 7); settings: 10 or 100 μg/cm^2 on SIS, 3 weeks
Method: The Example was performed to compare the in vivo angiogenic response to SIS compared to 2 levels of BisEDT coated SIS. The model used to detect in vivo angiogenesis was the mouse subcutaneous implant method as generally described by Heeschen et al., Nat. Med. […]; 7:833-9.
BisEDT was obtained from Microbion, Inc. as previously described. All SIS based grafts were made from 4-layer lyophilized sheets as described in the previous Examples. Sample groups consisted of this material coated with 10 μg/cm^2 BisEDT or 100 μg/cm^2 BisEDT. Each material was cut into ten 15 mm discs. Nylon filters with 0.22 μm pores were sewn on to the top and bottom of each disc. Low temperature ethylene oxide sterilization was used for each sample.
Samples were implanted subcutaneously into the dorsal flanks of mice. After anesthesia using Ketamine (87 mg/kg) and Xylazine (13 mg/kg), a small incision was made on the posterior neck of the mouse and a dorsal subcutaneous cavity was created using blunt dissection with hemostats. This was followed by sample placement and closure of the incision with 4 interrupted stitches of 5-0 suture. Six mice per group underwent disc implantation. The implant remained in the mice for a period of 3 weeks followed by probing for capillary formation.
Mice were sacrificed using a double dose of anesthesia to ensure intact flow in vasculature. While the heart was still beating, the chest cavity was exposed, vena cava severed, and 10 ml of heparized saline injected into the left ventricle using a 23 ga butterfly infusion set to exsanguinate the mouse. After transferring syringes (while maintaining infusion needle in left ventricle), 4 ml of a fluorescent microsphere (yellow-green, 0.1 μm diameter, Molecular Probes, F-8803) suspension (1:20 dilution of stock suspension) was injected through the left ventricle resulting in perfusion of the entire vasculature. Care was taken to ensure no bubbles were introduced during the injections, as bubbles will cause micro-emboli obstructing consistent perfusion. […]

S. aureus (ATCC #25983) [1] = assay: Zone-of-inhibition after ethylene oxide or E-beam sterilization of coated SIS discs (Example 4); assay type: cell-based
Method: BisEDT was obtained from Microbion, Inc. as previously described. Small intestinal submucosa (SIS) was obtained and processed into 4-layer lyophilized sheets as described in Example 1. The sheets were subsequently cut into 15 mm discs (˜1.76 cm^2) using a disc punch. BisEDT was resuspended in dimethyl sulfoxide (DMSO) and diluted to appropriate concentrations for coating. Discs were coated with the BisEDT solution at a final concentration of 0.35 μg/μl using 50 μl of the solution per disc for a final concentration of 10 μg/cm^2. The discs were subsequently placed in a lyophilizer overnight to remove the DMSO solvent. For the ethylene oxide sterilization compatibility experiment, 6 discs were coated with 10 μg/cm^2 BisEDT and packaged into 2 separate tyvek pouches with 3 discs per pouch. One pouch was placed in a drawer until use and left non-sterile and the other pouch was sterilized with low temperature ethylene oxide sterilization. For the E-beam sterilization, essentially the same process was performed except the discs were packaged in foil pouches and the samples were subjected to E-beam sterilization with a dose of ˜25 kGy. S. aureus (ATCC #25983) was used as the bacteria for this experiment. Bacteria was grown in Tryptic Soy Broth for 16-24 hours before placing a lawn on Tryptic Soy Agar in 100 mm Petri dishes. […]

S. aureus (ATCC #25983) [2] = assay: Zone-of-inhibition measured by image analysis, coated SIS discs (Example 2); assay type: cell-based; settings: 10 μg/cm^2 on SIS disc, 24 hours, n=3
Method: (§1) BisEDT (Molar ratio 1:1.5), BisBAL (1:1.5), and BisERY (1:1.5) (50 mg each) were obtained from Microbion, Inc. Small intestinal submucosa (SIS) was obtained and processed into 4-layer lyophilized sheets as described in Example 1. The sheets were subsequently cut into 15 mm discs (˜1.76 cm^2) using a disc punch. Bismuth thiols were resuspended in dimethyl sulfoxide (DMSO) and diluted to 0.35 μg/μl for coating. Discs were coated with the bismuth thiol solutions 50 μl of the appropriate solution per disc for a final concentration 10 μg/cm^2 (0.35 μg/μl*50 μl=17.5 μg/1.76 cm^2=10 μg/cm^2). The discs were subsequently placed in a lyophilizer overnight to remove the DMSO solvent. Control discs were prepared using 50 μl of DMSO without a bismuth thiol preparation. 3 bacteria were used for this experiment: S. aureus (ATCC #25983), P. aeruginosa (ATCC #27853), and E. coli (ATCC #25922). Bacteria was grown in Tryptic Soy Broth for 16-24 hours before placing a lawn on Tryptic Soy Agar in 100 mm Petri dishes.
(§2) Thirty samples were tested in total (3 bismuth thiol preparations @ n=3→9+1 control=10×3 bacteria=30). A lawn of one of the three bacteria investigated was swabbed onto the Tryptic Soy Agar. The bismuth thiol coated disc was rehydrated for ˜5 minutes in sterile saline and placed approximately in the center of the plate. Plates were incubated inverted for 24 hours at which time pictures were taken with a digital camera. Zones-of-inhibition were measured using image analysis software (Spot RT) by determining the distance of bacterial growth inhibition from the disc edge.

E. coli (ATCC #25922) = assay: as above; assay type: cell-based; settings: 10 μg/cm^2 on SIS disc, 24 hours, n=3
Method: as §1, §2

With bismuth-1,2-ethanedithiol [BisEDT] the “Angiogenic potential of coated SIS” value (mice) was “neither level of BisEDT (10 or 100 μg/cm^2) coated onto the SIS affected the angiogenic potential”, the “Local toxicity at explant” value (mice) was “no visual evidence of local toxicity at explant” and the Systemic toxicity (mice) was “no observed symptoms of systemic toxicity”. The “Zone-of-inhibition, visual” value (S. aureus (ATCC #25983) [1]; S. aureus, 10 μg/cm^2 on SIS disc, sterilized (ethylene oxide or E-beam ~25 kGy) and non-sterile) was “effectiveness at creating a zone-of-inhibition”, the “Compatibility with sterilization technique” value (S. aureus (ATCC #25983) [1]; ethylene oxide vs E-beam (~25 kGy), zone-of-inhibition against S. aureus compared visually) was “E-beam sterilization exhibited greater compatibility with BisEDT than ethylene oxide sterilization” and the “Zone-of-inhibition, distance of bacterial growth inhibition from the disc edge” value (S. aureus (ATCC #25983) [2]) was 6.83. The “Zone-of-inhibition, distance of bacterial growth inhibition from the disc edge” value (E. coli (ATCC #25922)) was 1.28.
